Patent US20230000813A1, “COMPOUND FOR THE TREATMENT OF BOVINE OR SWINE RESPIRATORY DISEASE” (Intervet Inc., priority 2016, published 2023)
Converted amounts (≈) assume the structure as drawn.

How the values were obtained:
Test in all cases: MIC, broth-microdilution (CLSI VET01-A4)
Type in all cases: cell-based
[1] = test system: Mannheimia haemolytica MH 13065 (XB0446-6003.9, BRD field isolate)
How it was run: (§1)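 Broth microdilution per CLSI VET01-A4 using doubling dilution series of compound. MIC taken as the lowest concentration with no turbidity visible to the unaided eye, interpreted per CLSI VET01-S3.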

[2] = test system: Mannheimia haemolytica MH 13093 (XB0472-6014.1, BRD field isolate)
How it was run: as §1

[3] = test system: Mannheimia haemolytica MH 10720 (154, BRD field isolate); details: Mannheimia haemolytica MH 10720; for MIC: read-out: MIC MH 10720
How it was run: (§2)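 Broth microdilution per CLSI VET01-A4 using doubling dilution series of test compound; results interpreted per CLSI VET01-S3. MIC recorded as lowest concentration giving no turbidity visible to the unaided eye.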

[4] = test system: Pasteurella multocida PM 12080 (IV102277-0093, BRD field isolate); details: Pasteurella multocida PM 12080; for MIC: read-out: MIC PM 12080
How it was run: as §2

[5] = test system: Mannheimia haemolytica MH 12587 (1071, BRD field isolate, macrolide-resistance: erm+, E+); details: Mannheimia haemolytica MH 12587, macrolide-resistant
How it was run: as §2

[6] = test system: Pasteurella multocida PM 6267 (P 2225 (L386), reference strain, mouse infection strain); details: Pasteurella multocida PM 6267; for MIC: read-out: MIC PM 6267
How it was run: as §2

[7] = test system: Pasteurella multocida PM 10775 (080130003051, BRD field isolate); details: Pasteurella multocida PM 10775
How it was run: as §2

[8] = test system: Mannheimia haemolytica MH 6357 (M7/2, reference strain, cattle infection strain); details: Mannheimia haemolytica MH 6357; read-out: MIC MH 6357
How it was run: as §2

[9] = test system: Mannheimia haemolytica MH 6374 (ATCC 33396, reference strain); details: Mannheimia haemolytica MH 6374; for MIC: read-out: MIC MH 6374
How it was run: as §2

[10] = test system: Pasteurella multocida PM 6391 (ATCC 43137, reference strain); details: Pasteurella multocida PM 6391; for MIC: read-out: MIC PM 6391
How it was run: as §2

Row | Compound | MIC [1] [µM] | MIC [2] [µM] | MIC MH 10720 [3] | MIC PM 12080 [4] | MIC MH 12587 [5] [µM] | MIC PM 6267 [6] | MIC PM 10775 [7] | MIC [8] [µM] | MIC [9] [µM] | MIC PM 6391 [10] | MIC [3] [µM] | MIC [4] [µM] | MIC [6] [µM] | MIC [10] [µM] | MIC ([7]; read-out: MIC PM 10775) [µM] | MIC MH 13065 [1] | MIC MH 6374 [9]
1 | CC(C)(O)C(NC(=O)c1ccc(C#Cc2ccc(CNCc3ccnc(Cl)c3)cc2)cc1)C(=O)NO (stereo not drawn) [Compound 575] | 0.2 (≈ 0.101 µg/mL) | 0.4 (≈ 0.203 µg/mL) | <=0.1 μM | <=0.1 μM | 0.4 (≈ 0.203 µg/mL) | <=0.1 μM | <=0.1 μM | 0.4 (≈ 0.203 µg/mL) | 0.4 (≈ 0.203 µg/mL) | <=0.1 μM | – | – | – | – | – | – | –
2 | CCC(C)C(NC(=O)c1ccc(C#Cc2ccc(CNCc3cccs3)cc2)cc1)C(=O)NO (stereo not drawn) [Compound 302] | 0.8 (≈ 0.38 µg/mL) | 0.8 (≈ 0.38 µg/mL) | – | – | 1.6 (≈ 0.761 µg/mL) | – | <=0.1 μM | 0.4 (≈ 0.19 µg/mL) | 1.6 (≈ 0.761 µg/mL) | – | 0.2 (≈ 0.0951 µg/mL) | 0.2 (≈ 0.0951 µg/mL) | 0.2 (≈ 0.0951 µg/mL) | 0.8 (≈ 0.38 µg/mL) | – | – | –
3 | C[C@@H](O)[C@H](NC(=O)c1ccc(C#Cc2ccc(CNCc3nccs3)cc2)cc1)C(=O)NO [Compound 359] | 0.2 (≈ 0.0929 µg/mL) | 0.4 (≈ 0.186 µg/mL) | <=0.1 μM | <=0.1 μM | 0.4 (≈ 0.186 µg/mL) | <=0.1 μM | <=0.1 μM | 0.2 (≈ 0.0929 µg/mL) | 0.2 (≈ 0.0929 µg/mL) | <=0.1 μM | – | – | – | – | – | – | –
4 | CSC(C)(C)[C@H](NC(=O)c1ccc(C#Cc2ccc(CNCc3ccccn3)cc2)cc1)C(=O)NO [Compound 595] | 0.8 (≈ 0.402 µg/mL) | 0.8 (≈ 0.402 µg/mL) | – | – | 1.6 (≈ 0.804 µg/mL) | – | <=0.1 μM | 0.8 (≈ 0.402 µg/mL) | 1.6 (≈ 0.804 µg/mL) | – | 0.2 (≈ 0.101 µg/mL) | 0.4 (≈ 0.201 µg/mL) | 0.2 (≈ 0.101 µg/mL) | 0.8 (≈ 0.402 µg/mL) | – | – | –
5 | COc1ccc(CNCc2ccc(C#Cc3ccc(C(=O)NC(C(=O)NO)C(C)(C)SC)cc3)cc2)cc1 (stereo not drawn) [Compound 586] | 1.6 (≈ 0.851 µg/mL) | 1.6 (≈ 0.851 µg/mL) | – | – | 1.6 (≈ 0.851 µg/mL) | – | – | 1.6 (≈ 0.851 µg/mL) | 1.6 (≈ 0.851 µg/mL) | – | 0.4 (≈ 0.213 µg/mL) | 0.4 (≈ 0.213 µg/mL) | 0.2 (≈ 0.106 µg/mL) | 0.8 (≈ 0.425 µg/mL) | 0.2 (≈ 0.106 µg/mL) | – | –
6 | C#CCNCc1ccc(C#Cc2ccc(C(=O)NC(C(=O)NO)C(C)(C)N)cc2)cc1 (racemic) [Compound 626] | 0.4 (≈ 0.167 µg/mL) | 0.8 (≈ 0.335 µg/mL) | <=0.1 μM | <=0.1 μM | 0.8 (≈ 0.335 µg/mL) | <=0.1 μM | <=0.1 μM | 0.8 (≈ 0.335 µg/mL) | 0.4 (≈ 0.167 µg/mL) | – | – | – | – | – | – | – | –
7 | CC(C)(O)C(NC(=O)c1ccc(C#Cc2ccc(CNCc3ccccc3)cc2)cc1)C(=O)NO (stereo not drawn) [Compound 569] | 0.4 (≈ 0.189 µg/mL) | 0.4 (≈ 0.189 µg/mL) | <=0.1 μM | <=0.1 μM | 0.8 (≈ 0.377 µg/mL) | <=0.1 μM | <=0.1 μM | 0.8 (≈ 0.377 µg/mL) | 0.4 (≈ 0.189 µg/mL) | <=0.1 μM | – | – | – | – | – | – | –
8 | C[C@@H](O)[C@H](NC(=O)c1ccc(C#Cc2ccc(CNC3CC3)nc2)cc1)C(=O)NO [C. 413] | 0.4 (≈ 0.163 µg/mL) | 0.4 (≈ 0.163 µg/mL) | – | <=0.1 μM | 0.8 (≈ 0.327 µg/mL) | <=0.1 μM | <=0.1 μM | 0.4 (≈ 0.163 µg/mL) | 0.8 (≈ 0.327 µg/mL) | <=0.1 μM | – | – | – | – | – | – | –
9 | C[C@@H](O)[C@H](NC(=O)c1ccc(C#Cc2ccc(CNCc3ccco3)s2)cc1)C(=O)NO [Compound 409] | – | 0.2 (≈ 0.0907 µg/mL) | – | <=0.1 μM | 0.4 (≈ 0.181 µg/mL) | <=0.1 μM | <=0.1 μM | 0.2 (≈ 0.0907 µg/mL) | – | <=0.1 μM | – | – | – | – | – | <=0.1 μM | <=0.1 μM
10 | C[C@@H](O)[C@H](NC(=O)c1ccc(C#Cc2ccc(CNC3CCC3)s2)cc1)C(=O)NO [Compound 402] | 0.4 (≈ 0.171 µg/mL) | 0.8 (≈ 0.342 µg/mL) | – | – | 1.6 (≈ 0.684 µg/mL) | <=0.1 μM | <=0.1 μM | 0.8 (≈ 0.342 µg/mL) | 0.8 (≈ 0.342 µg/mL) | – | – | 0.4 (≈ 0.171 µg/mL) | – | 0.2 (≈ 0.0855 µg/mL) | – | – | –
11 | CC(C)C(NC(=O)c1ccc(C#Cc2ccc(CNCC#N)cc2)cc1)C(=O)NO (stereo not drawn) [Compound 346] | 0.2 (≈ 0.0809 µg/mL) | 0.4 (≈ 0.162 µg/mL) | <=0.1 μM | <=0.1 μM | 0.8 (≈ 0.324 µg/mL) | <=0.1 μM | <=0.1 μM | 0.4 (≈ 0.162 µg/mL) | 0.4 (≈ 0.162 µg/mL) | – | – | – | – | – | – | – | –
12 | C[C@@H](O)[C@H](NC(=O)c1ccc(C#Cc2ccc(CNC3CC3)s2)cc1)C(=O)NO [Compound 398] | 0.2 (≈ 0.0827 µg/mL) | 0.2 (≈ 0.0827 µg/mL) | – | <=0.1 μM | 0.4 (≈ 0.165 µg/mL) | <=0.1 μM | <=0.1 μM | 0.4 (≈ 0.165 µg/mL) | 0.8 (≈ 0.331 µg/mL) | <=0.1 μM | – | – | – | – | – | – | –
13 | C[C@@H](O)[C@H](NC(=O)c1ccc(C#Cc2ccc(CNCC3CCCO3)s2)cc1)C(=O)NO (stereo partly drawn) [C. 412] | 0.8 (≈ 0.366 µg/mL) | 1.6 (≈ 0.732 µg/mL) | – | – | 1.6 (≈ 0.732 µg/mL) | <=0.1 μM | <=0.1 μM | 0.8 (≈ 0.366 µg/mL) | 0.8 (≈ 0.366 µg/mL) | – | – | 0.4 (≈ 0.183 µg/mL) | – | 0.2 (≈ 0.0915 µg/mL) | – | – | –
14 | CCCNCc1ccc(C#Cc2ccc(C(=O)N[C@H](C(=O)NO)[C@@H](C)O)cc2)s1 [Compound 404] | 0.8 (≈ 0.332 µg/mL) | 1.6 (≈ 0.665 µg/mL) | – | – | 1.6 (≈ 0.665 µg/mL) | – | <=0.1 μM | 1.6 (≈ 0.665 µg/mL) | 1.6 (≈ 0.665 µg/mL) | – | – | 0.8 (≈ 0.332 µg/mL) | 0.4 (≈ 0.166 µg/mL) | 0.4 (≈ 0.166 µg/mL) | – | – | –
15 | C[C@@H](O)[C@H](NC(=O)c1ccc(C#Cc2ccc(CNCc3ccccn3)s2)cc1)C(=O)NO [Compound 408] | 0.4 (≈ 0.186 µg/mL) | 0.4 (≈ 0.186 µg/mL) | – | <=0.1 μM | 0.8 (≈ 0.372 µg/mL) | <=0.1 μM | <=0.1 μM | 0.4 (≈ 0.186 µg/mL) | 0.4 (≈ 0.186 µg/mL) | <=0.1 μM | – | – | – | – | – | – | –
